# Data as given in paper PMC5218480 (PLoS ONE, 2017).
# System: MV-4-11 cells
# Assay: Gene expression microarray analysis (Affymetrix PrimeView) and GSEA
# Type: cell-based, human
# Parameters: RFU PODN (11730768_x_at) / Fold change /veh PODN (11730768_x_at) / RFU LINC00158 (11744669_a_at) / Fold change /veh LINC00158 (11744669_a_at) / RFU DUSP10 (11751237_a_at) / Fold change /veh DUSP10 (11751237_a_at) / RFU ID3 (11757404_x_at) / Fold change /veh ID3 (11757404_x_at) / RFU PLEKHG5 (11737974_s_at) / Fold change /veh PLEKHG5 (11737974_s_at) / RFU LRRC4B (11730491_at) / Fold change /veh LRRC4B (11730491_at) / RFU GIMAP4 (11747438_a_at) / Fold change /veh GIMAP4 (11747438_a_at) / RFU KRT8 (11758183_x_at) / Fold change /veh KRT8 (11758183_x_at) / RFU CNN1 (11734310_a_at) / Fold change /veh CNN1 (11734310_a_at) / RFU VPS37D (11726825_at) / Fold change /veh VPS37D (11726825_at) / RFU C10orf10 (11716522_x_at) / Fold change /veh C10orf10 (11716522_x_at) / RFU KIR2DL2 /// KIR2DL4 /// KIR2DL5A /// KIR2DL5B /// KIR2DS1 /// KIR2DS2 /// KIR2DS3 /// KIR2DS4 /// KIR3DL3 /// KIR3DL3 /// KIR3DS1 (11738374_at) / Fold change /veh KIR2DL2 /// KIR2DL4 /// KIR2DL5A /// KIR2DL5B /// KIR2DS1 /// KIR2DS2 /// KIR2DS3 /// KIR2DS4 /// KIR3DL3 /// KIR3DL3 /// KIR3DS1 (11738374_at) / RFU C1QL1 (11718748_at) / Fold change /veh C1QL1 (11718748_at) / RFU TMPRSS4 (11747572_a_at) / Fold change /veh TMPRSS4 (11747572_a_at) / RFU HAMP (11756126_x_at) / Fold change /veh HAMP (11756126_x_at) / RFU RNFT2 (11725882_a_at) / Fold change /veh RNFT2 (11725882_a_at) / RFU NR4A2 (11747474_a_at) / Fold change /veh NR4A2 (11747474_a_at) / RFU ABCC12 (11746883_a_at) / Fold change /veh ABCC12 (11746883_a_at) / RFU TMEM136 (11760407_x_at) / Fold change /veh TMEM136 (11760407_x_at) / RFU CLDN22 /// WWC2 (11732394_at) / Fold change /veh CLDN22 /// WWC2 (11732394_at) / RFU HLA-DPB1 (11760878_x_at) / Fold change /veh HLA-DPB1 (11760878_x_at) / RFU SPINT1 (11716480_a_at) / Fold change /veh SPINT1 (11716480_a_at) / RFU GAP43 (11754022_s_at) / Fold change /veh GAP43 (11754022_s_at) / RFU A4GNT (11735810_at) / Fold change /veh A4GNT (11735810_at) / RFU PRB3 (11715151_x_at) / Fold change /veh PRB3 (11715151_x_at) / RFU TUBB4B (11761932_at) / Fold change /veh TUBB4B (11761932_at) / RFU CAPN14 (11732068_a_at) / Fold change /veh CAPN14 (11732068_a_at) / RFU TMCC2 (11721928_a_at) / Fold change /veh TMCC2 (11721928_a_at) / RFU IRGQ (11745062_a_at) / Fold change /veh IRGQ (11745062_a_at) / RFU FAM174B (11720279_a_at) / Fold change /veh FAM174B (11720279_a_at) / RFU TMPRSS4 (11748680_a_at) / Fold change /veh TMPRSS4 (11748680_a_at) / RFU FAM212B (11763350_a_at) / Fold change /veh FAM212B (11763350_a_at) / RFU PLEKHG5 (11743358_a_at) / Fold change /veh PLEKHG5 (11743358_a_at) / RFU ZSCAN30 (11745921_a_at) / Fold change /veh ZSCAN30 (11745921_a_at) / RFU CMKLR1 (11741424_a_at) / Fold change /veh CMKLR1 (11741424_a_at) / RFU LOC101060620 /// MAPK8IP1 (11723275_at) / Fold change /veh LOC101060620 /// MAPK8IP1 (11723275_at) / RFU SPTSSB (11747773_x_at) / Fold change /veh SPTSSB (11747773_x_at) / RFU PRSS12 (11739890_at) / Fold change /veh PRSS12 (11739890_at) / RFU BIN1 (11741810_x_at) / Fold change /veh BIN1 (11741810_x_at) / RFU WNT11 (11732464_a_at) / Fold change /veh WNT11 (11732464_a_at) / RFU C10orf10 (11716521_a_at) / Fold change /veh C10orf10 (11716521_a_at) / RFU C5orf56 (11738089_at) / Fold change /veh C5orf56 (11738089_at) / RFU CYB561 (11721691_x_at) / Fold change /veh CYB561 (11721691_x_at) / RFU ANKRD19P (11752326_a_at) / Fold change /veh ANKRD19P (11752326_a_at) / RFU OR2T12 /// OR2T33 /// OR2T8 (11738714_s_at) / Fold change /veh OR2T12 /// OR2T33 /// OR2T8 (11738714_s_at) / RFU VCAN (11748164_a_at) / Fold change /veh VCAN (11748164_a_at) / RFU JSRP1 (11732532_at) / Fold change /veh JSRP1 (11732532_at) / RFU KRTAP10-11 (11738290_x_at) / Fold change /veh KRTAP10-11 (11738290_x_at) / RFU MYO3A (11730013_a_at) / Fold change /veh MYO3A (11730013_a_at) / RFU EBF3 (11725865_a_at) / Fold change /veh EBF3 (11725865_a_at) / RFU CAMK2N1 (11719241_x_at) / Fold change /veh CAMK2N1 (11719241_x_at) / RFU C5orf56 (11738088_a_at) / Fold change /veh C5orf56 (11738088_a_at) / RFU OLFML3 (11715873_a_at) / Fold change /veh OLFML3 (11715873_a_at) / RFU LOC100653217 /// NTM (11731650_a_at) / Fold change /veh LOC100653217 /// NTM (11731650_a_at) / RFU MAPK11 (11762145_a_at) / Fold change /veh MAPK11 (11762145_a_at) / RFU FIZ1 (11724087_x_at) / Fold change /veh FIZ1 (11724087_x_at) / RFU OASL (11726364_x_at) / Fold change /veh OASL (11726364_x_at) / RFU SOX15 (11748057_x_at) / Fold change /veh SOX15 (11748057_x_at) / RFU CD79A (11719716_a_at) / Fold change /veh CD79A (11719716_a_at) / RFU HIST1H1D (11736915_at) / Fold change /veh HIST1H1D (11736915_at) / RFU CASKIN2 (11723855_a_at) / Fold change /veh CASKIN2 (11723855_a_at) / RFU LOC730098 (11760151_x_at) / Fold change /veh LOC730098 (11760151_x_at) / RFU OR4N2 (11742367_at) / Fold change /veh OR4N2 (11742367_at) / RFU PRRT2 (11749266_a_at) / Fold change /veh PRRT2 (11749266_a_at) / RFU SNX32 (11753110_a_at) / Fold change /veh SNX32 (11753110_a_at) / RFU CDHR5 (11726645_a_at) / Fold change /veh CDHR5 (11726645_a_at) / RFU RCAN1 (11760418_a_at) / Fold change /veh RCAN1 (11760418_a_at) / RFU FAM167A (11723789_a_at) / Fold change /veh FAM167A (11723789_a_at) / RFU FAM26E (11764081_at) / Fold change /veh FAM26E (11764081_at) / RFU ISYNA1 (11749810_s_at) / Fold change /veh ISYNA1 (11749810_s_at) / RFU ACY1 (11761880_at) / Fold change /veh ACY1 (11761880_at) / RFU 11764098_at / Fold change /veh 11764098_at / RFU SAMD14 (11745864_x_at) / Fold change /veh SAMD14 (11745864_x_at) / RFU NPB (11741838_a_at) / Fold change /veh NPB (11741838_a_at) / RFU TMPRSS6 (11731388_a_at) / Fold change /veh TMPRSS6 (11731388_a_at) / RFU KRTAP10-2 (11738614_at) / Fold change /veh KRTAP10-2 (11738614_at) / RFU ARHGAP8 /// PRR5-ARHGAP8 (11727945_x_at) / Fold change /veh ARHGAP8 /// PRR5-ARHGAP8 (11727945_x_at) / RFU KRTAP5-7 /// NADSYN1 (11734609_at) / Fold change /veh KRTAP5-7 /// NADSYN1 (11734609_at) / RFU RASL12 (11751679_a_at) / Fold change /veh RASL12 (11751679_a_at) / RFU CDKN2B (11736163_a_at) / Fold change /veh CDKN2B (11736163_a_at) / RFU PRF1 (11729649_at) / Fold change /veh PRF1 (11729649_at) / RFU, ZNF638 /// ZNF638-IT1 / Fold change vs veh, ZNF638 /// ZNF638-IT1 / RFU, PANK3 / Fold change vs veh, PANK3 / RFU, SH3YL1 / Fold change vs veh, SH3YL1 / RFU, ZEB2 / Fold change vs veh, ZEB2 / RFU, NRIP1 / Fold change vs veh, NRIP1 / RFU, PTTG1IP / Fold change vs veh, PTTG1IP / RFU, CAPN2 / Fold change vs veh, CAPN2 / RFU, MED14 / Fold change vs veh, MED14 / RFU, SNORA58 / Fold change vs veh, SNORA58 / RFU, C1orf63 / Fold change vs veh, C1orf63 / RFU, LRRFIP1 / Fold change vs veh, LRRFIP1 / RFU, NDUFAF7 / Fold change vs veh, NDUFAF7 / RFU, SLC12A2 / Fold change vs veh, SLC12A2 / RFU, IBTK / Fold change vs veh, IBTK / RFU, ESF1 / Fold change vs veh, ESF1 / Fold change vs veh, TMEM50B / RFU, TAOK1 / Fold change vs veh, TAOK1 / RFU, ACBD3 / Fold change vs veh, ACBD3 / RFU, TMA16 / Fold change vs veh, TMA16 / RFU, RWDD3 / Fold change vs veh, RWDD3 / RFU, BCAT1 / Fold change vs veh, BCAT1 / RFU, EDEM3 / Fold change vs veh, EDEM3 / RFU, TMEM33 / Fold change vs veh, TMEM33 / RFU, WDR75 / Fold change vs veh, WDR75 / RFU, AHCTF1 / Fold change vs veh, AHCTF1 / RFU, TFRC / Fold change vs veh, TFRC / RFU, ZDHHC17 / Fold change vs veh, ZDHHC17 / RFU, NOM1 / Fold change vs veh, NOM1 / RFU, ARL8B / Fold change vs veh, ARL8B / RFU, ZBTB11 / Fold change vs veh, ZBTB11 / RFU, TAMM41 / Fold change vs veh, TAMM41 / RFU, KIAA1704 /// LOC100996395 / Fold change vs veh, KIAA1704 /// LOC100996395 / RFU, ING1 / Fold change vs veh, ING1 / RFU, TRMT61B / Fold change vs veh, TRMT61B / RFU, FUBP3 / Fold change vs veh, FUBP3 / RFU, TP53 / Fold change vs veh, TP53 / RFU, TNKS2 / Fold change vs veh, TNKS2 / RFU, ZFP14 / Fold change vs veh, ZFP14 / RFU, ACTR2 / Fold change vs veh, ACTR2 / RFU, PPP3R1 / Fold change vs veh, PPP3R1 / RFU, PIK3R1 / Fold change vs veh, PIK3R1 / RFU, HNRNPA1 / Fold change vs veh, HNRNPA1 / RFU, RNF170 / Fold change vs veh, RNF170 / RFU, ZNF28 / Fold change vs veh, ZNF28 / RFU, RNGTT / Fold change vs veh, RNGTT / RFU, OGT / Fold change vs veh, OGT / RFU, BRD1 / Fold change vs veh, BRD1 / RFU, MARS / Fold change vs veh, MARS / RFU, ZNF655 / Fold change vs veh, ZNF655 / RFU, FAHD1 / Fold change vs veh, FAHD1 / RFU, BDP1 / Fold change vs veh, BDP1 / RFU, LRRCC1 / Fold change vs veh, LRRCC1 / RFU, ARID1A / Fold change vs veh, ARID1A / RFU, ZNF146 / Fold change vs veh, ZNF146 / RFU, ZNF330 / Fold change vs veh, ZNF330 / RFU, GPN3 / Fold change vs veh, GPN3 / RFU, C9orf123 / Fold change vs veh, C9orf123 / RFU, N4BP2L2 / Fold change vs veh, N4BP2L2 / RFU, ARFIP1 / Fold change vs veh, ARFIP1 / RFU, FAM179B / Fold change vs veh, FAM179B / RFU, BCL10 / Fold change vs veh, BCL10 / RFU, UHRF1BP1L / Fold change vs veh, UHRF1BP1L / RFU, BET1 / Fold change vs veh, BET1 / RFU, CNOT2 / Fold change vs veh, CNOT2 / RFU, ZNF268 / Fold change vs veh, ZNF268 / Fold change vs veh, ZNF507 / RFU, DGCR2 / Fold change vs veh, DGCR2 / RFU, WDSUB1 / Fold change vs veh, WDSUB1 / Fold change vs veh, HSP90B1 /// MIR3652 / RFU, ADSS / Fold change vs veh, ADSS / RFU, GK / Fold change vs veh, GK / RFU, ZNF148 / Fold change vs veh, ZNF148 / RFU, TAF9 / Fold change vs veh, TAF9 / RFU, SLC1A5 / Fold change vs veh, SLC1A5 / RFU, SLMO2 / Fold change vs veh, SLMO2 / RFU, ABCC4 / Fold change vs veh, ABCC4 / RFU, LOC101060439 /// RAP1B / Fold change vs veh, LOC101060439 /// RAP1B / RFU, RFX7 / Fold change vs veh, RFX7 / RFU, GTPBP10 / Fold change vs veh, GTPBP10 / RFU, CNEP1R1 / Fold change vs veh, CNEP1R1 / RFU, BIVM-ERCC5 /// ERCC5 / Fold change vs veh, BIVM-ERCC5 /// ERCC5 / RFU, ILF3 / Fold change vs veh, ILF3 / RFU 11762660_at / Fold change /veh 11762660_at / RFU VCAN (11757783_s_at) / Fold change /veh VCAN (11757783_s_at) / RFU DDX43 (11728927_at) / Fold change /veh DDX43 (11728927_at) / RFU KRT8 (11758188_x_at) / Fold change /veh KRT8 (11758188_x_at) / RFU NKD1 (11759106_at) / Fold change /veh NKD1 (11759106_at) / RFU SRD5A1 (11742802_a_at) / Fold change /veh SRD5A1 (11742802_a_at) / RFU TPSAB1 /// TPSB2 (11721975_s_at) / Fold change /veh TPSAB1 /// TPSB2 (11721975_s_at) / RFU GSTM3 (11746129_a_at) / Fold change /veh GSTM3 (11746129_a_at) / RFU IL23R (11737362_x_at) / Fold change /veh IL23R (11737362_x_at) / RFU TMEM51 (11727254_a_at) / Fold change /veh TMEM51 (11727254_a_at) / RFU PIWIL2 (11732686_x_at) / Fold change /veh PIWIL2 (11732686_x_at) / RFU ORM1 (11744905_x_at) / Fold change /veh ORM1 (11744905_x_at) / RFU CCDC152 (11743942_at) / Fold change /veh CCDC152 (11743942_at) / RFU ECM1 (11717891_a_at) / Fold change /veh ECM1 (11717891_a_at) / RFU IL23R (11748794_a_at) / Fold change /veh IL23R (11748794_a_at) / RFU TNFAIP8L3 (11732012_x_at) / Fold change /veh TNFAIP8L3 (11732012_x_at) / RFU MBOAT4 (11741988_at) / Fold change /veh MBOAT4 (11741988_at) / RFU 11764193_at / Fold change /veh 11764193_at / RFU TMEM53 (11763286_at) / Fold change /veh TMEM53 (11763286_at) / RFU MAGEB2 (11727129_at) / Fold change /veh MAGEB2 (11727129_at) / RFU TMEM200A (11744735_a_at) / Fold change /veh TMEM200A (11744735_a_at) / RFU CCDC152 (11751479_a_at) / Fold change /veh CCDC152 (11751479_a_at) / RFU FAM211A (11726209_a_at) / Fold change /veh FAM211A (11726209_a_at) / RFU RGS16 (11746705_a_at) / Fold change /veh RGS16 (11746705_a_at) / RFU VCAN (11755009_s_at) / Fold change /veh VCAN (11755009_s_at) / RFU RHOB (11743442_s_at) / Fold change /veh RHOB (11743442_s_at) / RFU RGS16 (11720943_a_at) / Fold change /veh RGS16 (11720943_a_at) / RFU RGS16 (11720944_at) / Fold change /veh RGS16 (11720944_at) / RFU, VPS4B / Fold change vs veh, VPS4B / RFU, CREB1 / Fold change vs veh, CREB1 / RFU, DNAJC13 / Fold change vs veh, DNAJC13 / RFU, GNAQ / Fold change vs veh, GNAQ / RFU, CDK5R1 / Fold change vs veh, CDK5R1 / RFU, ZRANB3 / Fold change vs veh, ZRANB3 / RFU, CUL4A / Fold change vs veh, CUL4A / RFU, CCNY / Fold change vs veh, CCNY / RFU, UFL1 / Fold change vs veh, UFL1 / RFU, COG3 / Fold change vs veh, COG3 / RFU, DIAPH2 / Fold change vs veh, DIAPH2 / RFU, SKA2 / Fold change vs veh, SKA2 / RFU, AFF3 / Fold change vs veh, AFF3 / RFU, LMF1 / Fold change vs veh, LMF1 / RFU, IPO11 / Fold change vs veh, IPO11 / RFU, DFFB / Fold change vs veh, DFFB / RFU, FOXP1 / Fold change vs veh, FOXP1 / RFU, CARD8 / Fold change vs veh, CARD8 / RFU, STRN3 / Fold change vs veh, STRN3 / RFU, ADK / Fold change vs veh, ADK / RFU, RASSF2 / Fold change vs veh, RASSF2 / RFU, WIPF1 / Fold change vs veh, WIPF1 / RFU, LARP1B / Fold change vs veh, LARP1B / RFU, RASA1 / Fold change vs veh, RASA1 / RFU, RB1 / Fold change vs veh, RB1 / RFU, PPFIA1 / Fold change vs veh, PPFIA1 / RFU, MAT2A / Fold change vs veh, MAT2A / RFU, CCT5 / Fold change vs veh, CCT5 / RFU, WDR92 / Fold change vs veh, WDR92 / RFU, CUX1 / Fold change vs veh, CUX1 / RFU, TTC7A / Fold change vs veh, TTC7A / RFU, TMEM135 / Fold change vs veh, TMEM135 / RFU, DEPTOR / Fold change vs veh, DEPTOR / RFU, CPM / Fold change vs veh, CPM / RFU, DNAJB6 / Fold change vs veh, DNAJB6 / RFU, CACNA2D3 / Fold change vs veh, CACNA2D3 / RFU, DTX4 / Fold change vs veh, DTX4 / RFU, TFCP2 / Fold change vs veh, TFCP2 / RFU, GMCL1 /// GMCL1P1 / Fold change vs veh, GMCL1 /// GMCL1P1 / RFU, AEBP2 / Fold change vs veh, AEBP2 / RFU, SNHG1 /// SNORD22 /// SNORD25 /// SNORD26 /// SNORD27 /// SNORD28 /// SNORD29 /// SNORD31 / Fold change vs veh, SNHG1 /// SNORD22 /// SNORD25 /// SNORD26 /// SNORD27 /// SNORD28 /// SNORD29 /// SNORD31 / Fold change (Aza/veh), C12orf56 (ProbeSet 11735607_a_at) / Fold change (ACY-1035/veh), C12orf56 (ProbeSet 11735607_a_at) / Fold change (Aza/veh), FGFR1OP (ProbeSet 11751329_s_at) / Fold change (ACY-1035/veh), FGFR1OP (ProbeSet 11751329_s_at) / Fold change (Aza/veh), VPS36 (ProbeSet 11739960_a_at) / Fold change (ACY-1035/veh), VPS36 (ProbeSet 11739960_a_at) / RFU SYPL1 (11715823_x_at) / Fold change /veh SYPL1 (11715823_x_at) / RFU IGFBP7 (11715501_s_at) / Fold change /veh IGFBP7 (11715501_s_at) / RFU REEP3 (11722064_at) / Fold change /veh REEP3 (11722064_at) / RFU IGLL1 (11728026_x_at) / Fold change /veh IGLL1 (11728026_x_at): dose or concentration left out as unconfirmed
# Settings: ProbeSet 11741123_x_at; LIST D
compound,measurement,value
Nc1ncn([C@@H]2O[C@H](CO)[C@@H](O)[C@H]2O)c(=O)n1 [azacitidine],"Fold change vs veh, ADK",0.72
